From ChEMBL document CHEMBL1147417, “Synthesis of new thiophene and benzo[b]thiophene hydrazide derivatives as human NPY Y(5) antagonists” (Bioorg Med Chem Lett, 2004)

Key:
[1] = biological target: T1, Neuropeptide Y receptor type 5 (Homo sapiens, UniProt Q15761); assay: Human Neuropeptide Y5 receptor binding affinity
T1 sequence (Q15761 whole entry): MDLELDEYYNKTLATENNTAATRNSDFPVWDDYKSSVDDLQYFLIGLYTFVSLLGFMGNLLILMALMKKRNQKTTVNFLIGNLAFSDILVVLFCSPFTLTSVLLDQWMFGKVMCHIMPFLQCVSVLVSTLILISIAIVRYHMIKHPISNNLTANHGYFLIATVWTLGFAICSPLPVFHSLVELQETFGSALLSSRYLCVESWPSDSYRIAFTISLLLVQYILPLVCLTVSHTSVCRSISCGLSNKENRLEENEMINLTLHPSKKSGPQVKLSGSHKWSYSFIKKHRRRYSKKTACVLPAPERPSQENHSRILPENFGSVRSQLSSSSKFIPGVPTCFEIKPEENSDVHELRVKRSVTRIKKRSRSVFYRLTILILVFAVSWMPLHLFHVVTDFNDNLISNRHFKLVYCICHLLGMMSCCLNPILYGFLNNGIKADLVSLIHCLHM

[2] = biological target: T2, Neuropeptide Y receptor type 1 (Homo sapiens, UniProt P25929); assay: Human Neuropeptide Y1 receptor binding affinity
T2 sequence (P25929 whole entry): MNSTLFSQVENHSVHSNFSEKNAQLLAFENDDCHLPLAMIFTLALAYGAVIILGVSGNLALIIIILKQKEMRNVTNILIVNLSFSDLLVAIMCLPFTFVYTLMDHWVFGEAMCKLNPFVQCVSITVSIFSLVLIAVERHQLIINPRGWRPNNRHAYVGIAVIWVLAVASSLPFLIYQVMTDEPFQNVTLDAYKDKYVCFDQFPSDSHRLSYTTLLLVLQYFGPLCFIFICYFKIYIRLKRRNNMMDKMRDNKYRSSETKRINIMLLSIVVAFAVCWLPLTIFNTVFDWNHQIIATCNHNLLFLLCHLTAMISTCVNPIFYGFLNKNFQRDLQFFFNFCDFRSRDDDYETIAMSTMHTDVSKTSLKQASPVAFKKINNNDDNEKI

IC50 [1]	IC50 [2]	SMILES
175 nM	> 10000 nM	O=C(NNC(=O)[C@H]1CC[C@H](CNS(=O)(=O)c2ccccc2)CC1)c1cc2ccccc2s1
32.2 nM	> 10000 nM	O=C(NNC(=O)[C@H]1CC[C@H](CNS(=O)(=O)c2ccccc2)CC1)c1cccs1
11.5 nM	> 10000 nM	O=C(NNC(=O)[C@H]1CC[C@H](CNS(=O)(=O)c2cccs2)CC1)c1cc2ccccc2s1
42.9 nM	> 10000 nM	Cc1ccc(S(=O)(=O)NC[C@H]2CC[C@H](C(=O)NNC(=O)c3cc4ccccc4s3)CC2)cc1
12.5 nM	> 10000 nM	O=C(NNC(=O)[C@H]1CC[C@H](CNS(=O)(=O)c2cccs2)CC1)c1cccs1
279 nM	> 10000 nM	O=C(NNC(=O)[C@H]1CC[C@H](CNS(=O)(=O)c2ccc(Cl)cc2)CC1)c1cc2ccccc2s1
142 nM	> 10000 nM	CC(C)c1cc(C(C)C)c(S(=O)(=O)NC[C@H]2CC[C@H](C(=O)NNC(=O)c3cc4ccccc4s3)CC2)c(C(C)C)c1
7.7 nM	> 10000 nM	O=C(NNC(=O)[C@H]1CC[C@H](CNS(=O)(=O)c2ccc(Br)cc2)CC1)c1cccs1
147 nM	> 10000 nM	O=C(NNC(=O)[C@H]1CC[C@H](CNS(=O)(=O)c2cccc3cccnc23)CC1)c1cccs1
28.4 nM	> 10000 nM	O=C(NNC(=O)[C@H]1CC[C@H](CNS(=O)(=O)c2ccc(Br)cc2)CC1)c1cc2ccccc2s1
47.7 nM	> 10000 nM	CC(C)c1cc(C(C)C)c(S(=O)(=O)NC[C@H]2CC[C@H](C(=O)NNC(=O)c3cccs3)CC2)c(C(C)C)c1
20.4 nM	> 10000 nM	Cc1ccc(S(=O)(=O)NC[C@H]2CC[C@H](C(=O)NNC(=O)c3cccs3)CC2)cc1
92.2 nM	> 10000 nM	O=C(NNC(=O)[C@H]1CC[C@H](CNS(=O)(=O)c2cccc3cccnc23)CC1)c1cc2ccccc2s1
48.4 nM	> 10000 nM	O=C(NNC(=O)[C@H]1CC[C@H](CNS(=O)(=O)c2ccc(Cl)cc2)CC1)c1cccs1
